Reference: US20200354348A1, “SEMISYNTHETIC AURONES AND METHODS OF USE THEREOF” (University of Kentucky Research Foundation, priority 2018, published 2020)

melting point	SMILES
265 to 267 °C	CCn1cc(/C=C2\Oc3cc(O)ccc3C2=O)c2cc(OC)ccc21 [Aurone 3l, (2Z)-2-[(1-Ethyl-5-methoxy-1H-indol-3-yl)methylene]-6-hydroxy-1-benzofuran-3(2H)-one]
250 to 252 °C	COc1cccc2ccc(/C=C3\Oc4cc(O)ccc4C3=O)nc12 [Aurone 3g, (2Z)-6-Hydroxy-2-[(8-methoxyquinolin-2-yl)methylene]-1-benzofuran-3(2H)-one]
247 to 249 °C	Cn1cc(/C=C2\Oc3cc(OCc4c(Cl)cccc4Cl)ccc3C2=O)c2ccccc21 [Aurone 4g, (2Z)-6-[(2,6-Dichlorobenzyl)oxy]-2-[(1-methyl-1H-indol-3-yl)methylene]-1-benzofuran-3(2H)-one]
269 to 271 °C	COc1ccc2nc(/C=C3\Oc4cc(O)ccc4C3=O)ccc2c1 [Aurone 3f, (2Z)-6-Hydroxy-2-[(6-methoxyquinolin-2-yl)methylene]-1-benzofuran-3(2H)-one]
241 to 243 °C	Cn1cc(/C=C2\Oc3cc(OCc4ccccc4F)ccc3C2=O)c2ccccc21 [Aurone 4d, (2Z)-6-[(2-Fluorobenzyl)oxy]-2-[(1-methyl-1H-indol-3-yl)methylene]-1-benzofuran-3(2H)-one]
278 to 280 °C	O=C1/C(=C/c2ccnc3ccccc23)Oc2cc(O)ccc21 [Aurone 3h, (2Z)-6-Hydroxy-2-(quinolin-4-ylmethylene)-1-benzofuran-3(2H)-one]
> 220 °C	O=C1/C(=C/c2ccc(N3CCOCC3)cc2)Oc2cc(O)ccc21 [Aurone 2b, (2Z)-6-Hydroxy-2-(4-morpholin-4-ylbenzylidene)-1-benzofuran-3(2H)-one]
